In one data set the target is Cytochrome P450 2C9 (Homo sapiens, UniProt P11712). Description: Inhibition of CYP2C9 (unknown origin). The class given is ADME.
The target in data set [1] is Myosin light chain kinase family member 4 (Homo sapiens, UniProt Q86YV6). Nature of the data set: Binding affinity to SgK085 (unknown origin).
For data set [2], the target named is Mitogen-activated protein kinase 4 (Homo sapiens, UniProt P31152). Nature of the data set: Binding affinity to ERK4 (unknown origin).
Sequence of Mitogen-activated protein kinase 4 (P31152 whole entry): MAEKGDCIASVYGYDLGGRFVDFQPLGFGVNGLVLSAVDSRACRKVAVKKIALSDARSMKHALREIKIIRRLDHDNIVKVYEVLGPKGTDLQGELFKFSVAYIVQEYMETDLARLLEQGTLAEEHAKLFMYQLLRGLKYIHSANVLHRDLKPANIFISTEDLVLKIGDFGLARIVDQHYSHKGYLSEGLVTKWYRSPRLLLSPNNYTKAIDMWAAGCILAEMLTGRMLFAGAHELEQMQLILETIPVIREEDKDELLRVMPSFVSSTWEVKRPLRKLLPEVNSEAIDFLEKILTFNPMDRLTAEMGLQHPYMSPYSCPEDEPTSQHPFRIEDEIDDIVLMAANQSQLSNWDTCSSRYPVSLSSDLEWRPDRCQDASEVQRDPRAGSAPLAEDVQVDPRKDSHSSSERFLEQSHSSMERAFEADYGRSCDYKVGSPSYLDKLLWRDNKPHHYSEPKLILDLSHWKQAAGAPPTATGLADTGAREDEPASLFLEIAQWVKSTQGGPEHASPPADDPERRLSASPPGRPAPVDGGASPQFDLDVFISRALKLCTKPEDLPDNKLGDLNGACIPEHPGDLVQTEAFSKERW
In data set [3] the target is Serine/threonine-protein kinase Nek5 (Homo sapiens, UniProt Q6P3R8). Nature of the data set: Binding affinity to NEK5 (unknown origin).
Data set [4] addresses Death-associated protein kinase 1 (Homo sapiens, UniProt P53355). Description: Binding affinity to DAPK1 (unknown origin).
The subject of data set [5] is Rattus norvegicus. Nature of the data set: Cmax in Hanover-Wistar rat at 20 mg/kg, po. In kind it is ADME, organism-based. Also on record: dose 20 mg/kg, route oral. The note with it: in vivo.
Data set [6] addresses Interferon-induced, double-stranded RNA-activated protein kinase (Homo sapiens, UniProt P19525). Nature of the data set: Binding affinity to PRKR (unknown origin).
In data set [7] the target is NUAK family SNF1-like kinase 2 (Homo sapiens, UniProt Q9H093). Nature of the data set: Binding affinity to SNARK (unknown origin).
The target of data set [8] is Citron Rho-interacting kinase (Homo sapiens, UniProt O14578). Nature of the data set: Binding affinity to CIT (unknown origin).
Sequence of Citron Rho-interacting kinase (O14578 whole entry): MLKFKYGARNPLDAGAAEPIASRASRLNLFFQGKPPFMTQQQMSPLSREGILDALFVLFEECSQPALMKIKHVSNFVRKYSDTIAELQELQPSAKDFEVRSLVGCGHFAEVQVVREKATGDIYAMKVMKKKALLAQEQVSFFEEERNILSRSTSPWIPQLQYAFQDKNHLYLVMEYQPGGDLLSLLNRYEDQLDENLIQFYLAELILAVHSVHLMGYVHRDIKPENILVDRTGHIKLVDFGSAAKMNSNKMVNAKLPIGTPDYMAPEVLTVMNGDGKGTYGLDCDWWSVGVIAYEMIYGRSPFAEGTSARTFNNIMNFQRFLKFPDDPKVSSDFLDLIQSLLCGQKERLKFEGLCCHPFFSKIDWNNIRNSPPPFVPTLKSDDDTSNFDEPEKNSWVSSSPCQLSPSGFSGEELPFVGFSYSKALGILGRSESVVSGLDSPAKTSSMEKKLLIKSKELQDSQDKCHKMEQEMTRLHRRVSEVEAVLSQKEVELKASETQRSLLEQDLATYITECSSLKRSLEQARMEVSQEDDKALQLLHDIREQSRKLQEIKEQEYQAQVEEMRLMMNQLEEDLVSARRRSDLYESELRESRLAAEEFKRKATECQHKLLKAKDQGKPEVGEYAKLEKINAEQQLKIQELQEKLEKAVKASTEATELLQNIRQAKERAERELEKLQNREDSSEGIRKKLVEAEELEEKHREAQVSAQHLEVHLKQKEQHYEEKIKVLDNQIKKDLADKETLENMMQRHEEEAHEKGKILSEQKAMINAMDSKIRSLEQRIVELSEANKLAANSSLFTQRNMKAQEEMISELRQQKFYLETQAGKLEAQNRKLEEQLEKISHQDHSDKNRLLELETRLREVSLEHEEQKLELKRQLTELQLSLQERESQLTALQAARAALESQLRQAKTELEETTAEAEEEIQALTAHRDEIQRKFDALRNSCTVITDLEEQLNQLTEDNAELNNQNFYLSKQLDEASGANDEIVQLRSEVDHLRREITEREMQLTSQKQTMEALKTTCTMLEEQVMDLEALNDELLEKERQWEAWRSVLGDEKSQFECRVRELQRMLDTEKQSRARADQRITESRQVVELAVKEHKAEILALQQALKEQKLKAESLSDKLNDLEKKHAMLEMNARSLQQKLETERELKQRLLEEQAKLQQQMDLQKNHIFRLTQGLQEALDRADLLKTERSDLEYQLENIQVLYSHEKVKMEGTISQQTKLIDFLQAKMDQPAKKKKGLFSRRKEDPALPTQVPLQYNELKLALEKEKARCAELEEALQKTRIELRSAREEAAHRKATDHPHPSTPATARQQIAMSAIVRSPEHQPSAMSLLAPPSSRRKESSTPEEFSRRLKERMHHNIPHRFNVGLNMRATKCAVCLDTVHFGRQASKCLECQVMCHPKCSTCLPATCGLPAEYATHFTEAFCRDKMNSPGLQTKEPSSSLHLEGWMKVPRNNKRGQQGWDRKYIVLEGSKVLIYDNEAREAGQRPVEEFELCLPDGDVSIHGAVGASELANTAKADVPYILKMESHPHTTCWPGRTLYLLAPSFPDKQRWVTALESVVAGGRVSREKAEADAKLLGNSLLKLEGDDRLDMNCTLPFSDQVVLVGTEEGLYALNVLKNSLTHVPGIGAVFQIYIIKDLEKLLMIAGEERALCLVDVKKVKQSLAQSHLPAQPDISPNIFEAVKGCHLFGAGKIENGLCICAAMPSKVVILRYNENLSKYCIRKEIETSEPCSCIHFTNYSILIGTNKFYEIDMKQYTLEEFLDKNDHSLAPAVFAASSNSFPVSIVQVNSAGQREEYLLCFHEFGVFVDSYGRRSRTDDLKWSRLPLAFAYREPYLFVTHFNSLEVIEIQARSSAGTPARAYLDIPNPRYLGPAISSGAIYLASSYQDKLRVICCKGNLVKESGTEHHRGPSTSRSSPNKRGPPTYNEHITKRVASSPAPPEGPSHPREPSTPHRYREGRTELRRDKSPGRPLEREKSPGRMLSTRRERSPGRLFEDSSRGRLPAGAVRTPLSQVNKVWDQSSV
Data set [9] in a line: AUC (0 to infinity) in Hanover-Wistar rat at 2 mg/kg, po. The class given is ADME, organism-based. The conditions noted are these: plasma. Also on record: time infinity, dose 2 mg/kg, route oral.
Data set [10] deals with Mitogen-activated protein kinase 1 (Homo sapiens, UniProt P28482). Description: Binding affinity to ERK2 (unknown origin).
Sequence of Mitogen-activated protein kinase 1 (P28482 whole entry): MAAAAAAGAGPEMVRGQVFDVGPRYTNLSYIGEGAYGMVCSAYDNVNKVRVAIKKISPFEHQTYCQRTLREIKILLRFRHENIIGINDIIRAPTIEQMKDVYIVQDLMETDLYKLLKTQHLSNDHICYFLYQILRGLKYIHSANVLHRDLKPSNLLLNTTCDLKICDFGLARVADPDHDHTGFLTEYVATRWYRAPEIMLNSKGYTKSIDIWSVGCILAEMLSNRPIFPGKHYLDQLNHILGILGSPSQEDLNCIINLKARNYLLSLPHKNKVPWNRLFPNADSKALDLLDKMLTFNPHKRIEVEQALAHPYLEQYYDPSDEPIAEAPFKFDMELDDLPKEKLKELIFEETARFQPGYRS
A short description of data set [11]: AUC (0 to infinity) in Hanover-Wistar rat at 0.5 mg/kg, iv. In kind it is ADME, organism-based. Also on record: dose 0.5 mg/kg, route intravenous, time infinity. The conditions noted are these: plasma.
Data set [12] relates to Rattus norvegicus. Nature of the data set: Cmax in Hanover-Wistar rat at 0.5 mg/kg, iv. In kind it is ADME, organism-based. Also on record: dose 0.5 mg/kg, route intravenous. The conditions noted are these: in vivo.
The target of data set [13] is MAP kinase-interacting serine/threonine-protein kinase 1 (Homo sapiens, UniProt Q9BUB5). Description: Binding affinity to MKNK1 (unknown origin).
Sequence of MAP kinase-interacting serine/threonine-protein kinase 1 (Q9BUB5 whole entry): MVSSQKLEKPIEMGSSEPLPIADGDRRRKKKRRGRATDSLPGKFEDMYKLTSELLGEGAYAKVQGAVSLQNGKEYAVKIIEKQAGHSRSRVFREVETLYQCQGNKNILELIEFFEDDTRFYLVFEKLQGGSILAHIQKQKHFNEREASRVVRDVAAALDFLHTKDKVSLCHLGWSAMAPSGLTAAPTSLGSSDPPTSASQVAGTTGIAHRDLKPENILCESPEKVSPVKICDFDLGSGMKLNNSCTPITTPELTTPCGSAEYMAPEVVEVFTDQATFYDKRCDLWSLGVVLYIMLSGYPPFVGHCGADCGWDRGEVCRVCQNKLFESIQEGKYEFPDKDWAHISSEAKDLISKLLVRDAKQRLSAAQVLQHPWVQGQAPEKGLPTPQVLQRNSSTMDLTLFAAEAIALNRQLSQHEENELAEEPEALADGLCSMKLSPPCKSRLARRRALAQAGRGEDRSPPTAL
In data set [14] the target is Mitogen-activated protein kinase 7 (Homo sapiens, UniProt Q13164). Description: Binding affinity to ERK5 (unknown origin).
Data set [15] has as its target Serine/threonine-protein kinase 16 (Homo sapiens, UniProt O75716). Description: Binding affinity to STK16 (unknown origin).
Data set [16] addresses Glycogen synthase kinase-3 alpha (Homo sapiens, UniProt P49840). Description: Binding affinity to GSK3A (unknown origin).
The target in data set [17] is Atypical kinase COQ8B, mitochondrial (Homo sapiens, UniProt Q96D53). Description: Binding affinity to ADCK4 (unknown origin).
The next data set concerns the target MAP kinase p38 (Homo sapiens, UniProt O15264+Q15759+Q16539+P53778). Description: Inhibition of p38 (unknown origin)-dependent HSP27 phosphorylation by cell-based assay.
Data set [18] concerns the target Dual specificity protein kinase TTK (Homo sapiens, UniProt P33981). Nature of the data set: Binding affinity to TTK (unknown origin).
Data set [19] can be described thus: AUC (0 to infinity) in Hanover-Wistar rat at 20 mg/kg, po. The note with it: plasma. The class given is ADME, organism-based. Also on record: time infinity, dose 20 mg/kg, route oral.
For another data set, the target named is LIM domain kinase 1 (Homo sapiens, UniProt P53667). Description: Binding affinity to LIMK1 (unknown origin).
The target of data set [20] is Mitogen-activated protein kinase 9 (Homo sapiens, UniProt P45984). Nature of the data set: Binding affinity to JNK2 (unknown origin).
The nature of data set [21]: Half life in Hanover-Wistar rat at 20 mg/kg, po. The class given is ADME, organism-based. Also on record: dose 20 mg/kg, route oral. The note with it: in vivo.
Data set [22] in a line: Half life in Hanover-Wistar rat at 2 mg/kg, po. In kind it is ADME, organism-based. Also on record: dose 2 mg/kg, route oral. The note with it: in vivo.
Data set [23] deals with Serine/threonine-protein kinase Nek7 (Homo sapiens, UniProt Q8TDX7). Description: Binding affinity to NEK7 (unknown origin).
In data set [24] the target is Serine/threonine-protein kinase DCLK3 (Homo sapiens, UniProt Q9C098). Nature of the data set: Binding affinity to DCAMKL3 (unknown origin).
Sequence of Serine/threonine-protein kinase DCLK3 (Q9C098 whole entry): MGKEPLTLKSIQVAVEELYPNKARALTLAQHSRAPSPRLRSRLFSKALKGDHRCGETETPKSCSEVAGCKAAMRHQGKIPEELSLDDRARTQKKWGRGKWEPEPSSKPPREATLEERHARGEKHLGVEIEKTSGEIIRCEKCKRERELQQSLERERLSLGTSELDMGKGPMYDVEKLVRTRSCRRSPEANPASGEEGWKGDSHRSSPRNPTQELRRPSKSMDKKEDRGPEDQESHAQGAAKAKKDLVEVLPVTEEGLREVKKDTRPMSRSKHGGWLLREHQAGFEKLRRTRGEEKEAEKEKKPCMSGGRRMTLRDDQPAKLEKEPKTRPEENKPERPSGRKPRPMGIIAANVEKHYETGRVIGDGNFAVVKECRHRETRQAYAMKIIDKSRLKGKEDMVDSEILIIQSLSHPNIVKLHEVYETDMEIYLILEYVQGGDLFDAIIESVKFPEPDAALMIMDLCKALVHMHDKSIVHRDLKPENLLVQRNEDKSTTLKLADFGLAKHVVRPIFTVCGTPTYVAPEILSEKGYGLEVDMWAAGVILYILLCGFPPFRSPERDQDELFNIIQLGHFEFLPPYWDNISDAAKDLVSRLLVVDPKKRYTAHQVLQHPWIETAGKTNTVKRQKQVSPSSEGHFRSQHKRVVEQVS
A short description of data set [25]: Clearance in Hanover-Wistar rat at 0.5 mg/kg, iv. In kind it is ADME, organism-based. Also on record: dose 0.5 mg/kg, route intravenous. The note with it: in vivo.
The target in data set [26] is Dual specificity mitogen-activated protein kinase kinase 4 (Homo sapiens, UniProt P45985). Description: Binding affinity to MEK4 (unknown origin).
The nature of data set [27]: Oral bioavailability in Hanover-Wistar rat at 20 mg/kg. In kind it is ADME, organism-based. The note with it: in vivo.
A short description of data set [28]: Fraction unbound in human plasma. In kind it is ADME, cell-free.
The target of data set [29] is Death-associated protein kinase 3 (Homo sapiens, UniProt O43293). Description: Binding affinity to DAPK3 (unknown origin).
Data set [30] concerns the target Glycogen synthase kinase-3 beta (Homo sapiens, UniProt P49841). Description: Binding affinity to GSK3B (unknown origin).
Data set [31] has as its target Ribosomal protein S6 kinase alpha-1 (Homo sapiens, UniProt Q15418). Nature of the data set: Binding affinity to RPS6KA1 (unknown origin).
Data set [32] concerns the target Cyclin-dependent kinase 11A (Homo sapiens, UniProt Q9UQ88). Description: Binding affinity to CDC2L2 (unknown origin).
For data set [33], the target named is Cyclin-dependent kinase 7 (Homo sapiens, UniProt P50613). Nature of the data set: Binding affinity to CDK7 (unknown origin).
For data set [34], the target named is Atypical kinase COQ8A, mitochondrial (Homo sapiens, UniProt Q8NI60). Description: Binding affinity to ADCK3 (unknown origin).
In data set [35] the target is Calcium/calmodulin-dependent protein kinase type 1 (Homo sapiens, UniProt Q14012). Nature of the data set: Binding affinity to CAMK1 (unknown origin).
The nature of data set [36]: Half life in Hanover-Wistar rat at 0.5 mg/kg, iv. In kind it is ADME, organism-based. Also on record: dose 0.5 mg/kg, route intravenous. The note with it: in vivo.
Data set [37] addresses Mitogen-activated protein kinase 15 (Homo sapiens, UniProt Q8TD08). Description: Binding affinity to ERK8 (unknown origin).
A short description of data set [38]: Intrinsic clearance in rat liver microsomes measured per mg of protein. In kind it is ADME, Microsome. The note with it: read-out: CLH. In general terms: Microsomes from liver hold many membrane-bound enzymes, among them those of drug oxidation.
In data set [39] the target is Serine/threonine-protein kinase SIK2 (Homo sapiens) (UniProt Q9H0K1). Description: Competitive binding affinity to QIK (unknown origin) at 10 uM in presence of ATP relative to control.
The target of data set [40] is Serine/threonine-protein kinase 25 (Homo sapiens) (UniProt O00506). Nature of the data set: Competitive binding affinity to STK25 (unknown origin) at 10 uM in presence of ATP relative to control.
Sequence of Serine/threonine-protein kinase 25 (Homo sapiens) (O00506 whole entry, looked up): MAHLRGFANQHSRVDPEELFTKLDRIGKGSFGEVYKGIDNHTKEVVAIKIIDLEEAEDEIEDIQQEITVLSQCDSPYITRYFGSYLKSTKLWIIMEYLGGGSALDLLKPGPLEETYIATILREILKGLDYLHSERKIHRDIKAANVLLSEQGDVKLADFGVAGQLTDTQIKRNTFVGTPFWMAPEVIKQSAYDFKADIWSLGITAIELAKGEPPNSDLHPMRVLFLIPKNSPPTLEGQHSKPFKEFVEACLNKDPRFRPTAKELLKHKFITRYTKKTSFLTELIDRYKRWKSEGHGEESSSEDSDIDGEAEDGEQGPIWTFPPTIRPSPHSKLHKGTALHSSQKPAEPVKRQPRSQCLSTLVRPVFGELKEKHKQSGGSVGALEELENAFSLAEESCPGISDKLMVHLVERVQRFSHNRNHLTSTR

Experimental findings from ChEMBL document CHEMBL2424622, “Development of amino-pyrimidine inhibitors of c-Jun N-terminal kinase (JNK): kinase profiling guided optimization of a 1,2,3-benzotriazole lead” (Bioorg Med Chem Lett, 2013) are described below.

Sequence of Interferon-induced, double-stranded RNA-activated protein kinase (P19525 whole entry): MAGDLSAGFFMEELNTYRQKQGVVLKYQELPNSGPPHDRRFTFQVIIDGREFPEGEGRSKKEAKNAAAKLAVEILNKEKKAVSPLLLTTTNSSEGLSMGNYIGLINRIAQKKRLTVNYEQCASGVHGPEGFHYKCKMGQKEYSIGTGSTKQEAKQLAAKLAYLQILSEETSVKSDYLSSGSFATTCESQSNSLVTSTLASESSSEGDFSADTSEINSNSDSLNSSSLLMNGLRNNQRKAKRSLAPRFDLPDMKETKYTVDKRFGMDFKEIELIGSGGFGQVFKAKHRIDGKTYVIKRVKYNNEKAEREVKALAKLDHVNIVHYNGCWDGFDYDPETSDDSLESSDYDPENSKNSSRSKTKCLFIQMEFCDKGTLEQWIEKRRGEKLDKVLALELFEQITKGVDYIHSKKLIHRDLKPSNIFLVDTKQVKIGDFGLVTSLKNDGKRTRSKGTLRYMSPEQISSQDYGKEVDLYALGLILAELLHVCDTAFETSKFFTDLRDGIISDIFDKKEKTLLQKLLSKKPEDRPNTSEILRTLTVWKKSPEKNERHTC

`O[C@H]1CC[C@H](Nc2nccc(-n3nnc4ccccc43)n2)CC1`: the half-inhibitory concentration (IC50) (as a rule, the midpoint of a concentration-inhibition curve) at Cytochrome P450 2C9 stood at 7.8 nM.

Consider `CS(=O)(=O)CCCOc1cccc2c1ccn2-c1ccnc(N[C@H]2CC[C@H](C(=O)N3CCC(O)CC3)CC2)n1`, for which the Kd – broadly, a measure of binding affinity in units of concentration – in data set [1] stood at 620 nM; in [2], 11000 nM; in data set [3], 1400 nM; in data set [4], 380 nM; in data set [6] it was 120 nM; in data set [7] it was 2600 nM. For the same molecule, the dissociation constant Kd in data set [8] is 2700 nM; in data set [10] it was 1500 nM; in [13], 2100 nM; in data set [14] it was 1500 nM; in [15], 450 nM; in data set [16] it was 1300 nM. For the same molecule, the Kd in data set [17] was determined as 4800 nM; in [18], 1900 nM; at LIM domain kinase 1, 870 nM; in data set [20], 13 nM; in data set [23], 6900 nM; in data set [24] it was 1800 nM. Further, the Kd came to 390 nM in data set [26]; 880 nM in data set [29]; 5400 nM in data set [30]; 2100 nM in data set [31]; 2400 nM in [32]; 620 nM in data set [33]. The figures for the Kd in [34], in data set [35] and in [37] were 490 nM, 4300 nM and 650 nM, respectively. The figures for the peak concentration (Cmax) in the data set on Rattus norvegicus [5] and in the data set on Rattus norvegicus [12] were 3680 ng/mL and 2670 ng/mL, respectively. Besides, the AUC(0-inf) (as a rule, total exposure, with the tail of the curve extrapolated) in [9] turned out to be 490 ng·h/mL; in [11], 1850 ng·h/mL; in data set [19], 9330 ng·h/mL. The molecule also returned an IC50 at MAP kinase p38 greater than 30000 nM. Further, the half-life (usually how long it takes for the measured level to halve) in data set [21] is 2.9 h; in [22], 4 h; in data set [36] it was 2.6 h. Moreover, in data set [25], the clearance – broadly, the rate of elimination divided by the concentration – was 4.6 mL/min/kg. In addition, the bioavailability (as a rule, the share of a dose that reaches the circulation, judged against a reference dose that is usually intravenous) in data set [27] stood at 13%. Moreover, in data set [28], the fraction unbound (as a rule, free concentration divided by total concentration) was 0.05. The microsomal CLint in [38] was found to be 52 µL/min/mg.

On to `O[C@H]1CC[C@H](Nc2nccc(-c3n[nH]c4ccccc34)n2)CC1`, for which the inhibition (commonly how much of the control response was suppressed) in [39] is less than 50%; in data set [40], 85%.
